According to ChEMBL document CHEMBL1275562, “Incidence and characteristics of vancomycin nonsusceptible strains of methicillin-resistant Staphylococcus aureus at Hershey Medical Center” (2008):
≈ marks a conversion by molar mass, not a printed value.

Experiments:
Type in all cases: functional
[1] = test system: Staphylococcus aureus; test: Antimicrobial activity against vancomycin-intermediate Staphylococcus aureus SA1984 after 48 hrs by macro Etest method; details: SA1984, 48 h
[2] = test system: Staphylococcus aureus; test: Antimicrobial activity against vancomycin-susceptible Staphylococcus aureus SA662 after 48 hrs by macro Etest method; details: SA662, 48 h
[3] = test system: Staphylococcus aureus; test: Antimicrobial activity against vancomycin-intermediate Staphylococcus aureus SA770 after 48 hrs by macro Etest method; details: SA770, 48 h
[4] = test system: Staphylococcus aureus; test: Antimicrobial activity against heterogeneous vancomycin-intermediate Staphylococcus aureus SA873 after 48 hrs by macro Etest method; details: SA873, 48 h
[5] = test system: Staphylococcus aureus; test: Antimicrobial activity against vancomycin-intermediate Staphylococcus aureus SA1287 after 48 hrs by macro Etest method; details: SA1287, 48 h
[6] = test system: Staphylococcus aureus; test: Antimicrobial activity against vancomycin-susceptible Staphylococcus aureus SA2089 after 48 hrs by macro Etest method; details: SA2089, 48 h
[7] = test system: Staphylococcus aureus; test: Antimicrobial activity against heterogeneous vancomycin-intermediate Staphylococcus aureus SA618 after 48 hrs by macro Etest method; details: SA618, 48 h

SMILES | MIC [1] | MIC [2] | MIC [3] | MIC [4] | MIC [5] | MIC [6] | MIC [7]
CC(=O)N[C@@H]1[C@H](Oc2c3cc4cc2Oc2ccc(cc2Cl)[C@@H](O[C@@H]2O[C@@H](CO)[C@@H](O)[C@H](O)[C@@H]2NC(C)=O)[C@@H]2NC(=O)[C@H](NC(=O)[C@@H]4NC(=O)[C@H]4NC(=O)[C@@H](Cc5ccc(c(Cl)c5)O3)NC(=O)[C@H](N)c3ccc(O)c(c3)Oc3cc(O)cc4c3)c3ccc(O)c(c3)-c3c(O[C@H]4O[C@H](CO)[C@@H](O)[C@@H](O)[C@@H]4O)cc(O)cc3[C@@H](C(=O)O)NC2=O)O[C@@H](CO)[C@@H](O)[C@@H]1O | 8 µg/mL (≈ 4.53 µM) | 12 µg/mL (≈ 6.79 µM) | 24 µg/mL (≈ 13.6 µM) | 12 µg/mL (≈ 6.79 µM) | 8 µg/mL (≈ 4.53 µM) | 12 µg/mL (≈ 6.79 µM) | 24 µg/mL (≈ 13.6 µM)
CN[C@H](CC(C)C)C(=O)N[C@H]1C(=O)N[C@@H](CC(N)=O)C(=O)N[C@H]2C(=O)N[C@H]3C(=O)N[C@H](C(=O)N[C@H](C(=O)O)c4cc(O)cc(O)c4-c4cc3ccc4O)[C@H](O)c3ccc(c(Cl)c3)Oc3cc2cc(c3O[C@@H]2O[C@H](CO)[C@@H](O)[C@H](O)[C@H]2O[C@H]2C[C@](C)(N)[C@H](O)[C@H](C)O2)Oc2ccc(cc2Cl)[C@H]1O [VANCOMYCIN] | 6 µg/mL (≈ 4.14 µM) |  | 6 µg/mL (≈ 4.14 µM) | 3 µg/mL (≈ 2.07 µM) |  | 3 µg/mL (≈ 2.07 µM) | 3 µg/mL (≈ 2.07 µM)
